Source: US20230047816A1 (priority 2018, published 2023)
Counter-ions that a name gives are not always drawn. Like-named read-outs stand apart in the source and are kept apart here. Values belong to the compound of their own block, whether it stands above or below them.

Experiments:
[1] = biological target: Recombinant full length human PFKFB4 (Homo sapiens, UniProt Q16877); test: PFKFB4 kinase activity assay (ADP production, ADP-Glo)
[2] = biological target: Recombinant full length human PFKFB3 (Homo sapiens, UniProt Q16875); test: PFKFB3 kinase activity assay (ADP production, ADP-Glo)
[3] = cited from earlier work
[4] = system: T-47D; test: Combination with anticancer agents, T-47D; format: cell-based; conditions: Homo sapiens, T47D, anticancer agent alone
Protocol: (§1) All cells can be incubated in the plates overnight at 37° C., 5% 002 incubator with different medium.

[5] = system: MDA-MB-468; test: Combination with anticancer agents, MDA-MB-468; format: cell-based; conditions: Homo sapiens, anticancer agent alone
Protocol: as §1

[6] = system: neurons; test: Neuroprotection, protection factor, NMDA treatment; format: cell-based; conditions: Treatment NMDA 100 μM 10 minutes, then inhibitor 24 hours
Protocol: For NMDAR activation, neurons at 8 days in vitro were incubated 100 μM NMDA (plus 10 μM glycine) for 10 minutes. Neurons were then washed and further incubated in culture medium with the PFKFB3 inhibitors for 24 hours. For b-amyloid treatment, neurons at 8 days in vitro were incubated with […] b-amyloid plus the PFKFB3 inhibitors for 24 hours. The Protection factor was estimated as [AMC(beta-A)−AMC(DMSO)]/[AMC(beta-A)−AMC(Test article)] or [AMC(beta-A)−AMC(DMSO)]/[AMC(NMDA)−AMC(Test article)], where:
AMC(DMSO)—% dead neuron in case of DMSO treatment
AMC(NMDA)—% dead neuron in case of NMDA treatment
AMC(Test article)—% dead neuron in case of PFKFB3 inhibitors treatment.

[7] = system: HUVEC spheroids; test: VEGF-A induced sprouting, spheroid-based cellular angiogenesis assay; format: cell-based; conditions: Homo sapiens; for EC50: 3D HUVEC model, VEGF-A 25 ng/ml, 24 hours, read-out: EC50 of inhibition of vessel sprouting
Protocol: The effect of PFKFB3 inhibitors on VEGF-A induced sprouting of HUVECs in a spheroid-based cellular angiogenesis assay. Sunitinib was used as a control. The experiments were pursued in modification of the originally published protocol (Korff and Augustin: J Cell Sci 112: 3249-58, 1999). In brief, spheroids were prepared as described (Korff and Augustin: J Cell Biol 143:1341-52, 1998) by pipetting 500 HUVEC in a hanging drop on plastic dishes to allow overnight spheroid aggregation. 50 HUVEC spheroids were then seeded in 0.9 ml of a collagen gel and pipetted into individual wells of a 24 well plate to allow polymerization. The test compounds in combination with the growth factor VEGF-A at 25 ng/ml final assay concentration) were added after 30 min by pipetting 100 μl of a 10-fold concentrated working solution on top of the polymerized gel. Plates were incubated at 37° C. for 24 hours and fixed by adding 4% Roti-Histofix (Roth, Karlsruhe, Germany). Sprouting intensity of HUVEC spheroids treated with the growth factor and the inhibitors were quantitated by an image analysis system determining the cumulative sprout length per spheroid (CSL) using an inverted microscope and the digital imaging software NIS-Elements BR 3.0 (Nikon). The mean of the cumulative sprout length of 10 randomly selected spheroids was analyzed as an individual data point.

[8] = system: 4T1-M3-Luc breast tumor; test: Orthotopic 4T1-M3-Luc syngeneic breast tumor model; format: in vivo, female BALB/c mice
Protocol: The aim of this study was to evaluate the antitumor and anti-metastatic efficacy of GO-672 (4-({4-carboxy-2′,4′-dichloro-[1,1′-biphenyl]-3-yl}carbamoyl)-6-hydroxybenzene-1,3-dicarboxylic acid) (30 mg/kg twice daily, i.p.) in an orthotopic 4T1-M3-Luc syngeneic breast tumor model in female BALB/c mice in vivo.
Level of metastasis was evaluated in lymph nodes, lung, spine and ileum by ex vivo luciferase bioluminescence measurements (FIG. 10D).

[9] = system: HUVECs; test: HUVEC cell viability (Cyquant NF cell proliferation assay); format: cell-based, human; conditions: normoxia (20% O2) and hypoxia (1% O2)
Protocol: ThermoFisher Cyquant NF cell proliferation assay kit Normoxia conditions: 37° C., 5% CO2, 20% O2 incubator Hypoxia conditions: 37° C., 5% CO2, 1% O2 incubator FIG. 2. Effect of GO-672 on vessel sprouting in vitro. Raw images from the experiment with 3D spheroids of HUVEC after treatment with GO-672 (B) and Sunitinib (A). VEGF-A was used as a stimulation factor. Dose-response plot of GO-672 (C) and Sunitinib (D).

[10] = system: HUVECs; test: Cell viability of HUVECs in normoxia and hypoxia; format: cell-based; conditions: both normoxia and hypoxia conditions; FIG. 1
[11] = system: RENCA renal tumor; test: Orthotopic RENCA syngeneic renal tumor model; format: in vivo, female BALB/c mice; conditions: 30 mg/kg twice daily, i.p.
Protocol: The aim of this study was to evaluate the antitumor efficacy of GO-672 (4-({4-carboxy-2′,4′-dichloro-[1,1′-biphenyl]-3-yl}carbamoyl)-6-hydroxybenzene-1,3-dicarboxylic acid) (30 mg/kg twice daily, i.p.) in an orthotopic RENCA syngeneic renal tumor model in female BALB/c mice in vivo.

[12] = all treated patients; cited from earlier work
[13] = system: activated T-cells; conditions: reported in the literature; cited from earlier work
[14] = system: established tumors; conditions: reported in the literature; cited from earlier work
[15] = system: angiogenesis; conditions: reported in the literature; cited from earlier work
[16] = reported in the literature; cited from earlier work
[17] = biological target: PFKFB3 (Homo sapiens, UniProt Q16875); conditions: reported in the literature; cited from earlier work
[18] = 30 mg/kg twice daily, i.p., day 18

Chain of Recombinant full length human PFKFB3 (Q16875 whole entry): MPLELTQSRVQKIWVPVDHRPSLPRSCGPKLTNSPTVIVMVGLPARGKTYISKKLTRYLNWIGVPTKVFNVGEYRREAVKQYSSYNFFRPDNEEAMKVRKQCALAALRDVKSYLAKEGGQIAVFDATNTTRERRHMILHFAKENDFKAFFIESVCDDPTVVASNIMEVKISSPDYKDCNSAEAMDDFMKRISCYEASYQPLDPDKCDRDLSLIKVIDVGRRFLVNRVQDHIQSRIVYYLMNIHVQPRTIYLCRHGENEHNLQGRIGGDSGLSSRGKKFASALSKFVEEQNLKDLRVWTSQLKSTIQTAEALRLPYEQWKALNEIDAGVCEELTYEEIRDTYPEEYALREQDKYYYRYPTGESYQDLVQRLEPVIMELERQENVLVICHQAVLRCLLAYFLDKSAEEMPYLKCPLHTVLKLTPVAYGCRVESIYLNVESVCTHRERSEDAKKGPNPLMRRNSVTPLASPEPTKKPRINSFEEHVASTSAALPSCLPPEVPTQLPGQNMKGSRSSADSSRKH
Chain of Recombinant full length human PFKFB4 (Q16877 whole entry): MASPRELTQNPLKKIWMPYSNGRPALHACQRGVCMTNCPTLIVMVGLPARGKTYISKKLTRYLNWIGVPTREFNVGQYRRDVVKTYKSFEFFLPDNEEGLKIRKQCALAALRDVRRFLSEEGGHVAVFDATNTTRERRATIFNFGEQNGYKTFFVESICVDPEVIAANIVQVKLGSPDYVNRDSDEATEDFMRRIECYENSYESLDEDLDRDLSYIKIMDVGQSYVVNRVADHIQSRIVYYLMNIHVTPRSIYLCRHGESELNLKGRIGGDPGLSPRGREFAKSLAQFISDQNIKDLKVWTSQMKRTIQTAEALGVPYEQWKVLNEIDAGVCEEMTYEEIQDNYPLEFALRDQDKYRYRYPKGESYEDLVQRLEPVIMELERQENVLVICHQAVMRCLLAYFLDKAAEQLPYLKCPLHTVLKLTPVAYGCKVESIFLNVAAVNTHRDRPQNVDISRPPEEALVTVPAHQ
Chain of PFKFB3 (Q16875 whole entry, species assumed): as the sequence (Q16875 whole entry) above

- IC50 [1]: < 500 nM
- IC50 [2]: < 500 nM
Structure (SMILES): O=C(O)c1ccc(-c2ccc(F)c(F)c2)cc1N1C(=O)c2ccc(-c3c[nH]nn3)cc2C1=O [Compound 82, 3′,4′-Difluoro-3-[1,3-dioxo-5-(1H-[1,2,3]triazol-4-yl)-1,3-dihydroisoindol-2-yl]biphenyl-4-carboxylic Acid]

- IC50 [4]: 38600 nM
Structure (SMILES): O=C(c1cc(Cc2n[nH]c(=O)c3ccccc23)ccc1F)N1CCN(C(=O)C2CC2)CC1 [Olaparib]

- IC50 [1]: < 500 nM
- IC50 [2]: < 500 nM
Structure (SMILES): O=C(O)c1ccc2c(c1)C(=O)N(c1cc(-c3ccc(F)c(F)c3)ccc1C(=O)O)C2=O [Compound 138, 2-(4-Carboxy-3′,4′-difluoro[1,1′-biphenyl]-3-yl)-1,3-dioxo-2,3-dihydro-1H-isoindole-5-carboxylic acid]

- IC50 [1]: < 500 nM
- IC50 [2]: < 500 nM
Structure (SMILES): O=C(O)c1ccc(-c2ccccc2)cc1N1C(=O)c2cc(Cl)c(-c3cnn[nH]3)cc2C1=O [Compound 144c, 3-[5-Chloro-1,3-dioxo-6-(1H-1,2,3-triazol-5-yl)-2,3-dihydro-1H-isoindol-2-yl][1,1′-biphenyl]-4-carboxylic Acid]

- IC50 [1]: < 500 nM
- IC50 [2]: < 500 nM
Structure (SMILES): O=C(O)c1ccc2c(c1)C(=O)N(c1ccc(-c3ccccc3)cc1C(=O)O)C2=O [Compound 134, 2-(3-Carboxybiphenyl-4-yl)-1,3-dioxo-2,3-dihydro-1H-isoindole-5-carboxylic acid]

- IC50 [1]: < 500 nM
- IC50 [2]: < 500 nM
Structure (SMILES): O=C(O)c1cc2c(cc1O)C(=O)N(c1cc(-c3ccc(F)c(F)c3)ccc1C(=O)O)C2=O [Compound 144a, 2-(4-Carboxy-3′,4′-difluoro[1,1′-biphenyl]-3-yl)-6-hydroxy-1,3-dioxo-2,3-dihydro-1H-isoindole-5-carboxylic acid]

- IC50 [1]: < 500 nM
- IC50 [2]: < 500 nM
Structure (SMILES): O=C(O)c1ccc(-c2ccc(F)c(F)c2)cc1N1C(=O)c2cc(Cl)c(-c3cnn[nH]3)cc2C1=O [Compound 144b, 3-[5-Chloro-1,3-dioxo-6-(1H-1,2,3-triazol-5-yl)-2,3-dihydro-1H-isoindol-2-yl]-3′,4′-difluoro[1,1′-biphenyl]-4-carboxylic Acid]

- IC50 [1]: < 500 nM
- IC50 [2]: < 500 nM
Structure (SMILES): O=C(O)c1ccc2c(c1)C(=O)N(c1cc(-c3ccc(Cl)c(F)c3)ccc1C(=O)O)C2=O [Compound 143, 2-(4-Carboxy-4′-chloro-3′-fluoro[1,1′-biphenyl]-3-yl)-1,3-dioxo-2,3-dihydro-1H-isoindole-5-carboxylic acid]

The next lines start with the compound.

Structure (SMILES): O=C(O)c1nn(Cc2ccc(Cl)cc2Cl)c2ccccc12 [Lonidamine]
- toxicities in preclinical trials [3]: significant pancreatic and hepatic toxicities

Structure (SMILES): COc1cccc2c1C(=O)c1c(O)c3c(c(O)c1C2=O)C[C@@](O)(C(=O)CO)C[C@@H]3O[C@H]1C[C@H](N)[C@H](O)[C@H](C)O1 [Doxorubicin, Doxorubicin Hydrochloride]
- IC50 [5]: 70 nM

Structure (SMILES): CC(=O)O[C@H]1C(=O)[C@@]2(C)[C@H]([C@H](OC(=O)c3ccccc3)[C@]3(O)C[C@H](OC(=O)[C@H](O)[C@@H](NC(=O)c4ccccc4)c4ccccc4)C(C)=C1C3(C)C)[C@]1(OC(C)=O)CO[C@@H]1C[C@@H]2O [Paclitaxel]
- IC50 [5]: 10 nM

Structure (SMILES): CC(CN(C)C)OC(=O)c1ccc(-c2ccc(F)c(F)c2)cc1N1Cc2ccc(-c3cn[nH]n3)cc2C1=O (centres unmarked)
- Protection factors [6]: 2.56

Structure (SMILES): CCN(CC)CCNC(=O)c1c(C)[nH]c(/C=C2\C(=O)Nc3ccc(F)cc32)c1C [Sunitinib, reference compound]
- Emax ([7]; HUVEC, positive control, read-out: maximal effect (inhibition of vessel sprouting)): 100%
- EC50 [7]: 100 nM

Structure (SMILES): O=C(O)c1cc(C(=O)O)c(C(=O)Nc2cc(-c3ccc(Cl)cc3Cl)ccc2C(=O)O)cc1O [Compound 1, 4-({4-carboxy-2′,4′-dichloro-[1,1′-biphenyl]-3-yl}carbamoyl)-6-hydroxybenzene-1,3-dicarboxylic acid]
- reduction of body weight vs control group ([8]; 30 mg/kg twice daily, i.p.): not significant
- T/C ratio (tumor volume) ([8]; 30 mg/kg twice daily, i.p., day 4): 47%
- T/C ratio (tumor volume) ([8]; 30 mg/kg twice daily, i.p., day 7): 65%
- tumor volume after necropsy [8, 18]: significantly lower
- tumor weight after necropsy [8, 18]: not tumor weight
- level of metastasis (ex vivo luciferase bioluminescence) ([8]; lymph nodes, lung, spine and ileum): No statistically significant difference
- cell viability of HUVECs [9]: did not reduce cell viability
- Emax at 100 µM ([7]; HUVEC, at 100 μM, read-out: maximal effect: decrease of vessel sprouting down to): ~25%
- Emax ([7]; HUVEC, at the highest doses, read-out: maximal effect of vessel reduction, % from the initial level): 25 to 50%
- EC50 [7]: 20000 to 40000 nM
- cell viability of HUVECs [10]: did not reduce cell viability
- bioluminescence ([11]; day 16): increase of bioluminescence
- tumor volume after necropsy ([11]; day 17): significantly decreased
- tumor weight after necropsy ([11]; day 17): no statistically significant difference

Structure (SMILES): O=CC[C@@H](O)[C@H](O)[C@H](O)CO [2-deoxy-D-glucose]
- adverse effect in clinical trial [12]: hyperglycemia in all treated patients

Structure (SMILES): CCOC(=O)c1ccc(-c2ccc(F)c(F)c2)cc1N1Cc2ccc(-c3cnn[nH]3)cc2C1=O [compound 166, ethyl 3′,4′-difluoro-3-[1-oxo-6-(1H-1,2,3-triazol-5-yl)-2,3-dihydro-1H-isoindol-2-yl][1,1′-biphenyl]-4-carboxylate]
- IC50 [1]: < 20000 nM
- IC50 [2]: < 20000 nM

Structure (SMILES): O=C(C=Cc1cccnc1)c1ccncc1 [Compound 3PO, 3-(3-pyridinyl)-1-(4-pyridinyl)-2-propen-1-one]
- proliferation of activated T-cells [13]: inhibit proliferation of activated T-cells
- growth of established tumors in vivo [14]: reduce growth of established tumors in vivo
- angiogenesis [15]: inhibit angiogenesis
- glucose uptake [16]: reduce glucose uptake
- intracellular concentration of Fru-2,6-BP [16]: reduce intracellular concentration of Fru-2,6-BP
- PFKFB3 inhibition [17]: inhibit PFKFB3

Structure (SMILES): O=C(/C=C/c1ccc2ccc(C(F)(F)F)cc2n1)c1ccncc1 [ACT-PFK-158, (E)-1-(pyridin-4-yl)-3-(7-(trifluoromethyl)quinolin-2-yl)prop-2-en-1-one]
- growth of established tumors in vivo [14]: reduce growth of established tumors in vivo
- glucose uptake [16]: reduce glucose uptake
- intracellular concentration of Fru-2,6-BP [16]: reduce intracellular concentration of Fru-2,6-BP
- PFKFB3 inhibition [17]: inhibit PFKFB3

Structure (SMILES): O=C(OCC(O)CO)c1ccc(-c2ccc(F)c(F)c2)cc1N1Cc2ccc(-c3cn[nH]n3)cc2C1=O (centres unmarked)
- Protection factors [6]: 1.35

Structure (SMILES): O=C1NCC(COC(=O)c2ccc(-c3ccc(F)c(F)c3)cc2N2Cc3ccc(-c4cn[nH]n4)cc3C2=O)O1 (centres unmarked)
- Protection factors [6]: 1.05
